Assay results from patent US9051245B2 (UHA MIKAKUTO CO., LTD., priority 2011, dated 2015).
Read-outs that look alike come from different tables or passages of the source.

Legend:
[1] = test system: HL-60 cells (human myeloid leukemia cells); experiment: Cancer cell growth inhibitory action using HL-60 cells (Cell counting kit-8); format: cell-based; conditions: for IC50: HL-60 cells, 24 hours, read-out: Cell growth inhibition ability (IC50); for Effect of inhibiting the growth of the HL-60 cells compared with resveratrol and E-viniferin: relative to resveratrol and ε-viniferin
Experimental: Next, in order to see the effect of each compound to cancer cells, the cancer cell growth inhibitory action using HL-60 cells (human myeloid leukemia cells) was tested.
As culturing of cells, one in which 4 mM glutamine (L-glutamine, Sigma-Aldrich, “G8540-100G”) and 10% FBS (fetal bovine serum, Biological Industries, “04-001-1A”) were added to a high nutrient medium […] (Sigma-Aldrich, “R0883”) was used as a culture solution, and then subculture was performed. For a test, a 96-well plate for cell culture (Corning, “3595”) was used. The number of cells was adjusted on the test day in such a manner that the number of the HL-60 cells was 5×10^5 cell/mL, and then seeded in the 96-well plate with 100 μL/well.
For the preparation of the samples, each compound was dissolved with DMSO (dimethylsulfoxide, Wako Pure Chemical Industries, “046-21981”), and then the final concentration in the culture solution of the HL-60 cells of the samples was adjusted to be 10 μM, 30 μM, 100 μM, and 300 μM, respectively, and then the test was started.
For the detection of the cell growth inhibitory effect, the detection was performed by a MTT method using “Cell counting kit-8” (Dojin Chemical Laboratory, “347-07621”). More specifically, 24 hours after starting the test, 10 μL of the detection liquid of the cell counting kit-8 was added to each well, and then sufficiently stirred. Thereafter, a shading reaction was performed, the absorbance at 450 nm was measured using a plate reader (Biorad Laboratories, “BIO-RAD Model 680”), and then the obtained data were treated. The cell viability is a value obtained by calculation under the conditions where the number of survival cells of the cells treated with the culture solution to which DMSO was added was 100% and the number of survival cells of the cells under the concentration of each compound was defined as a relative value. From the relationship between each sample concentration and the cell viability, the concentration IC50 (50% inhibitory concentration) which inhibits the cell growth by 50% was calculated.

[2] = DPPH radical elimination method (antioxidation); conditions: for IC50: DPPH radical, 20 minutes, absorbance 520 nm, read-out: Radical capturing ability (IC50); for Antioxidation activity compared with resveratrol: DPPH, relative to resveratrol
Experimental: A test of the antioxidation effect of the UHA4002 and 4003 was performed. The test was performed by adopting a DPPH (1,1-diphenyl-2-picrylhydrazyl) radical elimination method. A technique thereof is mentioned below.
About the main experiment method of the DPPH radical elimination method, the test was advanced with reference to a technique described in “Methods for Functional Food Analysis” (Published by Korin Publishing Co., Ltd., edited by Kazuki SHINOHARA, Tateo SUZUKI, and Shuichi KAMINOGAWA, 2000). […] The DPPH reaction liquid was adjusted in such a manner as to be 400 μM DPPH (Sigma-Aldrich “D9132”), 50 mM MES (2-morpholinoethanesulphonic acid, Dojindo Laboratories, “345-01625”), and 75% ethanol. The reaction was performed in a 96-well plate (As One, “1-6776-03”), and 100 μL of the samples and 100 μL of the DPPH reaction liquid were placed, and then mixed. The mixture was allowed to stand still in a shading state for 20 minutes, and then each absorbance at 520 nm was measured with a plate reader.
The IC50 refers to a concentration of each sample which is considered to have an ability of eliminating 50% DPPH radical.

[3] = test system: Bacillus subtilis (NBRC 3134); experiment: Antibacterial paper disc method; format: cell-based; conditions: 24 hours, read-out: Diameter of inhibition zone; for zone of inhibition at 1000 µM: NBRC3134, added concentration 1 mM; for zone of inhibition at 5000 µM: NBRC3134, added concentration 5 mM; for zone of inhibition at 10000 µM: NBRC3134, added concentration 10 mM
Experimental: An assay was performed by a paper disc method for the purpose of confirming the antibacterial action of the UHA4002 and 4003. The paper disc method is a known technique capable of easily investigating the antibacterial activity of a test substance by creating each inhibition zone of the test substance. The assay was performed using, as a fungus body, Bacillus subtilis (NBRC 3134) purchased from National Institute of Technology and Evaluation Biological Resource Center NBRC. For the raise of a fungus body and a culture method thereof, No. 702 which is a culture solution specified by NBRC was adjusted and used. The culture was performed at 37° C. The experiment method of the paper disc method ((Agar) culture solution, Culture method, Test preparation, Test method) was performed in accordance with a BSAC standardization disc sensitivity test method (8th edition). […] As a positive control, chloramphenicol (Wako Pure Chemical Industries, “036-10571”) of an antibacterial component to be used as a pharmaceutical agent was dissolved in DMSO and adjusted and, as a negative control, DMSO was used. The samples thus adjusted were immersed in the paper disc, disposed on an agar medium in which bacillus subtilis was seeded, cultured, and then, after 24 hours later, the measurement of the inhibition zone was performed. The reliability of this example is confirmed from the size of the inhibition zone by chloramphenicol.

[4] = test system: SCC-4 cells (human oral cancer cells); experiment: Oral cancer cell growth inhibitory action using SCC-4 cells (Cell counting kit-8); format: cell-based; conditions: read-out: Cell growth inhibition ability (IC50)
Experimental: For culturing of the SCC-4 cells, a DMEM/F-12 (1:1) culture medium (manufactured by GIBCO) containing 400 ng/mL hydrocortisone (manufactured by Sigma-Aldrich Japan), 1% antibiotic-antimycotic (manufactured by GIBCO), and 10% FBS (Fetal Bovine Serum, manufactured by ATCC) was used. For the test, a collagen I coat 96-well plate for cell culture (manufactured by Japan BD) was used, and SCC-4 cells whose number of cells was adjusted to be 5×10^5 cells/mL were seeded with 100 μL/well. The cells were cultured under the conditions of 37° C. and 5% CO2 for 24 hours, and were used for the test in a confluent state of 80% or higher.
With respect to the sample preparation, each compound was dissolved with DMSO, and then prepared in such a manner as to be 0.63 mM, 1.25 mM, 2.5 mM, 5 mM, and 10 mM. The samples were added in such a manner that the final concentration in the SCC-4 cell culture solution was 6.3 μM, 12.5 μM, 25 μM, 50 μM, and 100 μM, and then the test was started. The sample to which an equivalent amount of only DMSO as the solvent was added was used as a negative control.
The number of viable cells was quantified by an MTT method using a “Cell counting kit-8” in the same manner as in Example 3, and the concentration IC50 at which the cell growth is inhibited by 50% was calculated.

[5] = target: rat intestine derived lipase; experiment: Lipase inhibitory action test (Lipase kit S); format: biochemical; conditions: 30° C., 10 minutes reaction
Experimental: As lipase, one obtained by suspending 100 mg of rat derived intestine acetone powder (manufactured by Sigma-Aldrich Japan) in 1 mL of 100 mM citric acid buffer (pH 6.0), stirring the same at 4° C. for 1 hour, centrifuging the same (at 15000 rpm for 45 minutes at 4° C.) to obtain a supernatant, and then diluting the supernatant by 1500 times was used as a lipase solution.
With respect to the sample preparation, those obtained by dissolving each compound with DMSO, and then preparing in such a manner as to be 0.1 mM, 0.5 mM, 1 mM, 2 mM, and 4 mM were used.
For measuring the activity, a “Lipase kit S” (Trade name, manufactured by Dainippon Pharmaceutical Co., Ltd.) was used. First, in accordance with a preparation method described in the catalog of the Lipase kit S, a color developing liquid was prepared. Reaction liquids in which 70 μL, of the color developing liquid, 2 μL of an esterase inhibitor, 10 μL of the lipase solution, and 10 μL of the samples (Final concentration: 10 μM, 50 μM, 100 μM, 200 μM, 400 μM, and 1000 μM) were mixed were prepared, preincubated at 30° C. for 5 minutes, and then 8 μl of a substrate solution described in the catalog was added. Then, a reaction was started. After reacting for 10 minutes, 150 μL of a reaction stop liquid prepared in accordance with the preparation method described in the catalog of the Lipase kit S was added to stop the reaction. […]

[6] = Physicochemical properties: solubility in solvents

Oc1ccc(/C=C/c2cc(O)cc3c2C(c2ccc(O)cc2)Cc2cc(O)cc(O)c2-3)cc1 (single isomer, unassigned) [UHA 4002]
IC50 ([1]; Homo sapiens): 30 µM | Effect of inhibiting the growth of the HL-60 cells compared with resveratrol and E-viniferin [1]: twice or higher | IC50 [2]: 50 µM | Antioxidation activity compared with resveratrol [2]: as high as twice | zone of inhibition at 1000 µM [3]: 8.5 mm | zone of inhibition at 5000 µM [3]: 11 mm | zone of inhibition at 10000 µM [3]: 13.3 mm | IC50 [4]: 52.1 µM | IC50 [5]: 311 µM | Solubility ([6]; Chloroform): Poorly soluble | Solubility ([6]; DMSO): Soluble | Solubility ([6]; Ethanol): Soluble | Solubility ([6]; Ethyl acetate): Poorly soluble | Solubility ([6]; Methanol): Soluble | Solubility ([6]; Water): Poorly soluble

Oc1ccc(/C=C\c2cc(O)c3c(c2)-c2c(O)cc(O)cc2CC3c2ccc(O)cc2)cc1 (single isomer, unassigned) [UHA 4003]
IC50 ([1]; Homo sapiens): 30 µM | Effect of inhibiting the growth of the HL-60 cells compared with resveratrol and E-viniferin [1]: twice or higher | IC50 [2]: 50 µM | Antioxidation activity compared with resveratrol [2]: as high as twice | zone of inhibition at 1000 µM [3]: 8.3 mm | zone of inhibition at 5000 µM [3]: 10.5 mm | zone of inhibition at 10000 µM [3]: 11.8 mm | IC50 [4]: 32.4 µM | Solubility ([6]; Chloroform): Poorly soluble | Solubility ([6]; DMSO): Soluble | Solubility ([6]; Ethanol): Soluble | Solubility ([6]; Ethyl acetate): Poorly soluble | Solubility ([6]; Methanol): Soluble | Solubility ([6]; Water): Poorly soluble

Oc1ccc(/C=C/c2cc(O)cc(O)c2)cc1 [Resveratrol, trans-resveratrol, reference compound]
IC50 ([1]; Homo sapiens): 80 µM | zone of inhibition at 1000 µM [3]: 0 mm | zone of inhibition at 5000 µM [3]: 0 mm | zone of inhibition at 10000 µM [3]: 0 mm | zone of inhibition at 50000 µM ([3]; NBRC3134, added concentration 50 mM): 10 mm | IC50 [4]: > 100 µM | IC50 [5]: > 1000 µM

Oc1ccc(/C=C/c2cc(O)cc3c2[C@@H](c2cc(O)cc(O)c2)[C@H](c2ccc(O)cc2)O3)cc1 [ε-viniferin, reference compound]
IC50 [1]: 60 µM
